Measured values as given in patent US11279687B2, “Compounds and compositions for the inhibition of NAMPT” (Valo Health, Inc., priority 2010, dated 2022).
Like-named read-outs stand apart in the source and are kept apart here.

Columns and labels:
NAMPT = NAMPT (Homo sapiens (Human), UniProt P43490); assay: NAMPT biochemical inhibition assay (NMN quantified by mass spectrometry); conditions: NAMPT biochemical inhibition; read-out: Biochem IC50
A2780 cells = assay: In-vitro cell proliferation assay (SRB), A2780 cells; assay type: cell-based; conditions: A2780 cells, 72 hours, SRB, read-out: A2780 IC50;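 further: viable cell number read as SRB absorbance, background from media-only wells subtracted, IC50 interpolated from percent inhibition at two bracketing compound concentrations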

NAMPT, sequence (P43490 whole entry): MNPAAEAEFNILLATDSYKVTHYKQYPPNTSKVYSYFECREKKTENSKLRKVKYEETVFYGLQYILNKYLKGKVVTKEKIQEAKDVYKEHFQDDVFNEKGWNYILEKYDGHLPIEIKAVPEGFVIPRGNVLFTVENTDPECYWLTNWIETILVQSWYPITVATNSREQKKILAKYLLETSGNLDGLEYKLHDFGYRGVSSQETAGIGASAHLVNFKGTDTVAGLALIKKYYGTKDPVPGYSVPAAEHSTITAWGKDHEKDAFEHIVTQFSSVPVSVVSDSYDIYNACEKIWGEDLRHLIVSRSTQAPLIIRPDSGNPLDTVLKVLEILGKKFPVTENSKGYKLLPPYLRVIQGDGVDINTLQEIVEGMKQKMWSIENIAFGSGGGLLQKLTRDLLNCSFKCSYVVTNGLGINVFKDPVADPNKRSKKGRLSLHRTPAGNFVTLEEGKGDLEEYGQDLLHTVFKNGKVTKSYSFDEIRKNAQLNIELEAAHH

SMILES	IC50 (NAMPT) [nM]	IC50 (A2780 cells) [nM]	IC50 (A2780 cells; Homo sapiens, A2780, 72 h) [nM]
CCN(CC)C(=O)c1ccc(F)c(S(=O)(=O)c2ccc(NC(=O)NCc3cccnc3)cc2)c1 [N,N-diethyl-4-fluoro-3-[(4-{[(pyridin-3-ylmethyl)carbamoyl]amino[benzene)sulfonyl]benzamide]	2.4	88.5	
CN(C)C(=O)C1CCN(S(=O)(=O)c2ccc(NC(=O)NCc3cccnc3)cc2)CC1 [N,N-dimethyl-1-[(4-{[(pyridin-3-ylmethyl)carbamoyl]amino}benzene)sulfonyl]piperidine-4-carboxamide]	9		164
CN(C)C(=O)c1ccccc1NS(=O)(=O)c1ccc(NC(=O)NCc2cccnc2)cc1 [N,N-dimethyl-2-[(4-{[(pyridin-3-ylmethyl)carbamoyl]amino}benzene)sulfonamido]benzamide]	16		55
CN(C)C(=O)c1cccc(S(=O)(=O)c2ccc(NC(=O)NCc3cccnc3)cc2)c1 [N,N-dimethyl-3-[(4-{[(pyridin-3-ylmethyl)carbamoyl]amino[benzene)sulfonyl]benzamide]	7.4	100 to 1000	
CN(C)C(=O)c1ccc(S(=O)(=O)c2ccc(NC(=O)NCc3cccnc3)cc2)cc1 [N,N-dimethyl-4-[(4-{[(pyridin-3-ylmethyl)carbamoyl]amino}benzene)sulfonyl]benzamide]	5		53
O=C(NCc1ccc2ncsc2c1)c1ccc(S(=O)(=O)c2cccc(Cl)c2)cc1 [N-(1,3-benzothiazol-6-ylmethyl)-4-[(3-chlorobenzene)sulfonyl]benzamide]	11400		9.71
O=C(NCc1cccnc1)Nc1ccc(S(=O)(=O)c2cccc(C(=O)NCCO)c2)cc1 [N-(2-hydroxyethyl)-3-[(4-{[(pyridin-3-ylmethyl)carbamoyl]amino[benzene)sulfonyl]benzamide]	7.8	100 to 1000	
CC(C)CNC(=O)c1cccc(S(=O)(=O)c2ccc(NC(=O)NCc3cccnc3)cc2)c1 [N-(2-methylpropyl)-3-[(4-{[(pyridin-3-ylmethyl)carbamoyl]amino[benzene)sulfonyl]benzamide]	9.7	100 to 1000	
CC(C)NC(=O)CN1CCN(S(=O)(=O)c2ccc(NC(=O)NCc3cccnc3)cc2)CC1 [N-(propan-2-yl)-2-{4-[(4-{[(pyridin-3-ylmethyl)carbamoyl]amino}benzene)sulfonyl]piperazin-1-yl}acetamide]	3		37
CC(C)NC(=O)c1cccc(S(=O)(=O)c2ccc(NC(=O)NCc3cccnc3)cc2)c1 [N-(propan-2-yl)-3-[(4-{[(pyridin-3-ylmethyl)carbamoyl]amino[benzene)sulfonyl]benzamide]	10	100 to 1000	
O=C(NCCc1cccnc1)c1ccc(S(=O)(=O)c2cccc(OC(F)(F)F)c2)cc1 [N-[2-(pyridin-3-yl)ethyl]-4-{[3-(trifluoromethoxy)benzene]sulfonyl}benzamide]	9370		374
O=C(NCCc1cccnc1)c1ccc(S(=O)(=O)Nc2cccc(OC(F)(F)F)c2)cc1 [N-[2-(pyridin-3-yl)ethyl]-4-{[3-(trifluoromethoxy)phenyl]sulfamoyl[benzamide]	20500		1550
O=C(Nc1nc(-c2cccnc2)cs1)c1ccc(S(=O)(=O)N2CCc3ccccc3C2)cc1 [N-[4-(pyridin-3-yl)-1,3-thiazol-2-yl]-4-(1,2,3,4-tetrahydroisoquinoline-2-sulfonyl)benzamide]	11100		2620
O=C(NCc1cccnc1)Nc1ccc(S(=O)(=O)c2cccc(C(=O)NC3CCCC3)c2)cc1 [N-cyclopentyl-3-[(4-{[(pyridin-3-ylmethyl)carbamoyl]amino[benzene)sulfonyl]benzamide]	9.6	100 to 1000	
O=C(NCc1cccnc1)Nc1ccc(S(=O)(=O)c2cccc(C(=O)NC3CC3)c2)cc1 [N-cyclopropyl-3-[(4-{[(pyridin-3-ylmethyl)carbamoyl]amino[benzene)sulfonyl]benzamide]	6.4	100 to 1000	
CCNC(=O)c1cccc(S(=O)(=O)c2ccc(NC(=O)NCc3cccnc3)cc2)c1 [N-ethyl-3-[(4-{[(pyridin-3-ylmethyl)carbamoyl]amino[benzene)sulfonyl]benzamide]	6.7		100 to 1000
CCNC(=O)c1ccc(S(=O)(=O)c2ccc(NC(=O)NCc3cccnc3)cc2)cc1 [N-ethyl-4-[(4-{[(pyridin-3-ylmethyl)carbamoyl]amino[benzene)sulfonyl]benzamide]	1.3		40.2
CCN(C(C)=O)[C@H]1CCN(S(=O)(=O)c2ccc(NC(=O)NCc3cccnc3)cc2)C1 [N-ethyl-N-[(3S)-1-[(4-{[(pyridin-3-ylmethyl)carbamoyl]amino}benzene)sulfonyl]pyrrolidin-3-yl]acetamide]	6		79
CNC(=O)c1ccccc1NS(=O)(=O)c1ccc(NC(=O)NCc2cccnc2)cc1 [N-methyl-2-[(4-{[(pyridin-3-ylmethyl)carbamoyl]amino}benzene)sulfonamido]benzamide]	1		11
CNC(=O)c1ccc(S(=O)(=O)c2ccc(NC(=O)NCc3cccnc3)cc2)cn1 [N-methyl-5-[(4-{[(pyridin-3-ylmethyl)carbamoyl]amino}benzene)sulfonyl]pyridine-2-carboxamide]	3.8		83.8
CN(C(=O)CN1CCN(S(=O)(=O)c2ccc(NC(=O)NCc3cccnc3)cc2)CC1)c1ccccc1 [N-methyl-N-phenyl-2-{4-[(4-{[(pyridin-3-ylmethyl)carbamoyl]amino}benzene)sulfonyl]piperazin-1-yl}acetamide]	8		30
CC(=O)Nc1cccc(S(=O)(=O)c2ccc(NC(=O)NCc3cccnc3)cc2)c1 [N-{3-[(4-{[(pyridin-3-ylmethyl)carbamoyl]amino}benzene)sulfonyl]phenyl}acetamide]	1.5		39.5
COc1cccc(S(=O)(=O)c2ccc(C(=O)NCc3ccc4nccn4c3)cc2)c1 [N-{imidazo[1,2-a]pyridin-6-ylmethyl}-4-[(3-methoxybenzene)sulfonyl]benzamide]	19.2		3.54
O=C(NCc1ccc2nccn2c1)c1ccc(S(=O)(=O)N2CC3CCC(C2)O3)cc1 [N-{imidazo[1,2-a]pyridin-6-ylmethyl}-4-{8-oxa-3-azabicyclo[3.2.1]octane-3-sulfonyl}benzamide]	109		27.1
O=C(NCc1ccc2nccn2c1)c1ccc(S(=O)(=O)c2cccc(OC(F)(F)F)c2)cc1 [N-{imidazo[1,2-a]pyridin-6-ylmethyl}-4-{[3-(trifluoromethoxy)benzene]sulfonyl}benzamide]	139		1.8
O=C(NCc1ccc2nccn2c1)c1ccc(S(=O)(=O)Nc2cccc(OC(F)(F)F)c2)cc1 [N-{imidazo[1,2-a]pyridin-6-ylmethyl}-4-{[3-(trifluoromethoxy)phenyl]sulfamoyl}benzamide]	467		8.58
O=C(NCc1ccc2nccn2c1)c1ccc(S(=O)(=O)c2cccc(C(F)(F)F)c2)cc1 [N-{imidazo[1,2-a]pyridin-6-ylmethyl}-4-{[3-(trifluoromethyl)benzene]sulfonyl}benzamide]	7.03		4.33
